Here are results for two compounds from US20130324564A1, “POLYMORPHS OF (S)-1-(4,4,6,6,6-PENTADEUTERO-5-HYDROXYHEXYL)-3-7-DIMETHYL-1H-PURINE-2,6(3H,7H)-DIONE” (CONCERT PHARMACEUTICALS, INC., priority 2010, published 2013).

A short description of data set [1]: Relative thermodynamic stability and interconversion of polymorphs. It counts as physicochemical.
A short description of data set [2]: Solid-form stability of Form 1 under humidity, pressure and grinding stress. The class given is physicochemical.

In the case of `[2H]C([2H])([2H])[C@H](O)C([2H])([2H])CCCn1c(=O)c2c(ncn2C)n(C)c1=O` [Form 2, (S)-1-(4,4,6,6,6-pentadeutero-5-hydroxyhexyl)-3,7-dimethyl-1H-purine-2,6(3H,7H)-dione], the form conversion result in data set [1] (upon air drying, storage and/or slurrying at room temperature) is “convert to Form 1”.
Turning to `[2H]C([2H])([2H])[C@H](O)C([2H])([2H])CCCn1c(=O)c2c(ncn2C)n(C)c1=O` [Form 1, (S)-1-(4,4,6,6,6-pentadeutero-5-hydroxyhexyl)-3,7-dimethyl-1H-purine-2,6(3H,7H)-dione], the relative thermodynamic stability entry in data set [1] (compared with the other polymorphs) was “more thermodynamically stable than any of Forms 2, 3 and 4”. The “form stability / form change” value was “stable and did not undergo a form change” in data set [2] (exposed to 0.35 GPa pressure); “stable and did not undergo a form change” in data set [2] (exposed to 97% relative humidity for up to 12 days); “stable and did not undergo a form change” in data set [2] (ground at ambient temperature (30Hz for 2hrs)); “stable and did not undergo a form change” in data set [2] (ground at −196° C. (25Hz for 0.5hrs)).
